The source of these data is patent publication US8933147B2, “Anti-microbial dental impression material” (3M Innovative Properties Company, priority 2005, dated 2015).

In test [1] the test system is Streptococcus mutans (DSM 20523). Put plainly: Laboratory model of impression taking: material set against filters loaded with Streptococcus mutans, rinsed, remaining growth on agar. It is filed as cell-based. More on the design: key: confluent growth, +++; many colonies, ++; few colonies, +; no growth, −. The settings on record: Impregum Garant L DuoSoft. As to the method:
(§1) A laboratory system was worked out that models the clinical procedure of impression taking with concomitant contamination of the material, the removal of the material from the mouth and the subsequent cleaning by a brief rinse under tap water. The remaining contamination was determined by microbiological methods:
(§2) Impression material was applied into sterile Petri dishes. Filters loaded with Streptococcus mutans (DSM 20523) or stimulated human saliva were contacted with the material during setting. A Strep. mutans concentration of approx. 5E9 CFU/ml was chosen which is similar to the microorganismsl number found salviva. After setting, the material was removed from the contaminated filter and briefly rinsed with sterile water.
(§3) Remaining microorganisms were transferred to agar plates and the plates were incubated anaerobically at 37° C. to allow for growth of surviving microorganisms. Microorganisms growth was recorded as confluent growth, +++; many colonies, ++; few colonies, +; no growth, −.

The test system of test [2] is salivary microorganisms. Briefly: Laboratory model of impression taking: material set against filters loaded with stimulated human saliva, rinsed, remaining growth on agar. The test is classed as cell-based. More on the design: key: confluent growth, +++; many colonies, ++; few colonies, +; no growth, −. The settings on record: Impregum Garant L DuoSoft. The procedure: as §1, §2, §3

[3] abbreviates: Chlorhexidine 1.5 % in cured paste.
[4] abbreviates: Chlorhexidine 3.6 % in cured paste.

For the substance “chlorhexidine diacetate hydrate [CHX diacetate hydrate]”, the “Growth of S. mutans (initial conc. 5E9 CFU/ml)” value was “−” in test [1] (Chlorhexidine 0.6-0.7 % in cured paste); “−” in test [1] (Chlorhexidine 0.8 % in cured paste); “−” in test [1] (setting [3]); “−” in test [1] (setting [4]); “+++” in test [1] (Chlorhexidine <0.2 % in cured paste). The “Growth of salivary microorganisms (initial conc. 5E7 CFU/ml)” value in test [2] (setting [3]) and in test [2] (setting [4]) was “−” in each case.
